Among the data in patent publication US8729089B2 (Gilead Sciences, Inc., priority 2006, dated 2014) are EC50 and CC50 values, retold here.

Structures are written as SMILES.

In data set [1] the test system is HCV replicon in human hepatoma Huh-7 cell line. The data set is described as follows: Anti-HCV replicon assay (EC50, luciferase). Conditions: Hepatitis C virus, Huh-7, 72 h. In kind it is cell-based. How it is done: (§1) The anti-HCV activity of the pyrido[3,2-d]pyrimidine derivatives of this invention was tested in a human hepatoma Huh-7 cell line harboring a HCV replicon. The assay comprised the following steps:
(§2) Step 1: Compound Preparation and Serial Dilution
(§3) • 1. for water soluble pyrido[3,2-d]pyrimidine derivatives, a volume of 500 μL of solution in cell media (DMEM, 10% FBS, P/S, L-Glutamine) was prepared with a concentration being twice the concentration of the starting final serial dilution concentration. A volume of 150 μL of the solution was added to the pre-specified wells in column 1 of a 96-well cell culture plate (PerkinElmer, white plate, cat. #6005181, for EC50 assay; black plate, cat. #6005182 for CC50 assay). The rest of the plate, columns 2-12, was filled with 100 μL of cell media. The plate was then placed on a Precision 2000 Workstation to start the serial dilution. Compounds were diluted three times each step from column 1 to column 10. Column 11 was used as a blank control (no compound added). • 2. for pyrido[3,2-d]pyrimidine derivatives requiring DMSO to dissolve, serial dilution is performed in 50% DMSO in a 384-well plate. A solution containing a compound at 100-fold concentration of the starting final serial dilution concentration was prepared in 50% DMSO and added to the pre-specified wells in column 1 of a polypropylene 384-well plate. The plate was then placed on a Precision 2000 Workstation to start the serial dilution. After the serial dilution, a volume of 2 μL of the solution was transferred from the 384-well plate to a 96-well cell culture plate containing 100 μL of cell media on a Biomek FX Workstation. The DMSO concentration in the final assay condition was 0.5% after cells are added to the plate and the total volume in each well is brought to 200 μL.
(§4) Step 2: to each well of the serial dilution plate prepared above, 100 μL of cell media containing 6000 suspended Huh-7 HCV replicon cells was added with a Multidrop workstation. The plates were incubated for 3 days at 37° C. with 5% CO2.
(§5) • a) for the EC50 assay, the media in a 96-well cell culture plate was aspirated with a Biotek EL405 plate-washer. A volume of 200 μL of a solution containing a 1:1 mixture of cell-lysis buffer (Promega, Luciferase Cell Culture Lysis 5× Reagent, cat. #E1531) and luciferase substrate solution (Promega, Luciferase Assay, cat.#E4550) was added to each well of the plate with Multidrop. The plate was incubated for 30 minutes at room temperature before the luminescence signal was measured with a TopCount plate-reader. • b) for the CC50 assay, a volume of 100 μL of pre-mixed CellTiter-Glo (Promega, cat.#G7572) solution is added directly to the cell culture in each well of the plate and the luminescence signal is measured with a TopCount plate-reader after 10 minutes of incubation at room temperature.

A short description of data set [2]: CC50 assay (CellTiter-Glo) in Huh-7 HCV replicon cells. In kind it is cell-based, human. Particulars: human, 3 days incubation, CellTiter-Glo readout. How it is done: as §1, §2, §3, §4, §5

For the compound `CN1CC[C@H](C(=O)Nc2ccc(-c3ccc4nc(NCc5ccc(S(N)(=O)=O)cc5)nc(NCC(F)(F)F)c4n3)cc2F)C1` [Example 177, 1-Methyl-pyrrolidine-3-carboxylic acid {2-fluoro-4-[2-(4-sulfamoyl-benzylamino)-4-(2,2,2-trifluoro-ethylamino)-pyrido[3,2-d]pyrimidin-6-yl]-phenyl}-amide], in data set [1], the EC50 (as a rule, the concentration giving half of the maximal effect) was less than 0.1 µM. In data set [2], the CC50 – broadly, the concentration giving 50% cytotoxicity – at 3 days was in the range of 5 to 25 µM.
For the compound `NS(=O)(=O)c1ccc(CNc2nc(Nc3ccc(-n4cncn4)cc3)c3nc(-c4ccc(F)cc4)ccc3n2)cc1` [Example 228, 4-{[6-(4-Fluoro-phenyl)-4-(4-[1,2,4]triazol-1-yl-phenylamino)-pyrido[3,2-d]pyrimidin-2-ylamino]-methyl}-benzenesulfonamide], in data set [1], the EC50 is less than 0.1 µM. Further, the CC50 at 3 days in data set [2] is less than 5 µM.
On the same counts, the results for `Fc1ccc(-c2ccc3nc(NCc4cccnc4)nc(NCC(F)(F)F)c3n2)cc1` [Example 244, 6-(4-Fluoro-phenyl)-N2-pyridin-3-ylmethyl-N4-(2,2,2-trifluoro-ethyl)-pyrido[3,2-d]pyrimidine-2,4-diamine] are less than 0.1 µM and 5 to 25 µM.
In the same order, the values of `CCOc1nc(NCc2ccc(F)cc2)nc2ccc(-c3ccc(C(=O)NC4(C#N)CC4)cc3)nc12` [Example 98, N-(1-Cyano-cyclopropyl)-4-[4-ethoxy-2-(4-fluoro-benzylamino)-pyrido[3,2-d]pyrimidin-6-yl]-benzamide] are less than 0.1 µM and greater than 25 µM.
On the same counts, the results for `CC(C)(C)OC(=O)N1CCC(NS(=O)(=O)c2cc(-c3ccc4nc(NCc5ccc(S(N)(=O)=O)cc5)nc(NCC(F)(F)F)c4n3)ccc2Cl)CC1` [Example 201, 4-{2-Chloro-5-[2-(4-sulfamoyl-benzylamino)-4-(2,2,2-trifluoro-ethylamino)-pyrido[3,2-d]pyrimidin-6-yl]-benzenesulfonylamino}-piperidine-1-carboxylic acid tert-butyl ester] are less than 0.1 µM and 5 to 25 µM.
`CCOc1nc(NCc2ccc(F)cc2)nc2ccc(-c3ccc(C(=O)NC(C)(C)CN4CCOCC4)cc3)nc12` [Example 103, N-(1,1-Dimethyl-2-morpholin-4-yl-ethyl)-4-[4-ethoxy-2-(4-fluoro-benzylamino)-pyrido[3,2-d]pyrimidin-6-yl]-benzamide]: in data set [1], the EC50 is less than 0.1 µM. In data set [2], this compound registered a CC50 at 3 days of less than 5 µM.
In the same order, the values of `CCOc1nc(NCc2cccc(Cl)c2F)nc2ccc(-c3ccc(F)cc3)nc12` [Example 48, (3-Chloro-2-fluoro-benzyl)-[4-ethoxy-6-(4-fluoro-phenyl)-pyrido[3,2-d]pyrimidin-2-yl]-amine] are less than 0.1 µM and greater than 25 µM.
On the same counts, the results for `CC(C)Nc1nc(NCC(F)(F)F)nc2ccc(-c3ccc(F)cc3)nc12` [Example 55, 6-(4-Fluoro-phenyl)-N4-isopropyl-N2-(2,2,2-trifluoro-ethyl)-pyrido[3,2-d]pyrimidine-2,4-diamine] are less than 0.1 µM and 5 to 25 µM.
In the same order, the values of `NS(=O)(=O)c1ccc(CNc2nc(NCC(F)(F)F)c3nc(-c4ccc(F)c(S(N)(=O)=O)c4)ccc3n2)cc1` [Example 225, 2-Fluoro-5-[2-(4-sulfamoyl-benzylamino)-4-(2,2,2-trifluoro-ethylamino)-pyrido[3,2-d]pyrimidin-6-yl]-benzenesulfonamide] are less than 0.1 µM and greater than 25 µM.
On to `CN(CC(F)(F)F)c1nc(NCc2ccc(S(N)(=O)=O)cc2)nc2ccc(-c3ccc(F)cc3)nc12` [Example 206, 4-({6-(4-Fluoro-phenyl)-4-[methyl-(2,2,2-trifluoro-ethyl)-amino]-pyrido[3,2-d]pyrimidin-2-ylamino}-methyl)-benzenesulfonamide], for which the EC50 in data set [1] is less than 0.1 µM. In data set [2], this compound registered a CC50 at 3 days of less than 5 µM.
In the same order, the values of `CCOc1nc(NCc2ccc(S(N)(=O)=O)cc2)nc2ccc(-c3ccc(F)c(NS(=O)(=O)C4CC4)c3)nc12` [Example 139, 4-{[4-Ethoxy-6-(4-(3-cyclopropanesulfonamido-4-fluoro)-phenyl)-pyrido[3,2-d]pyrimidin-2-ylamino]-methyl}-benzenesulfonamide] are less than 0.1 µM and less than 5 µM.
In the same order, the values of `NS(=O)(=O)c1ccc(CNc2nc(OC3CCC3)c3nc(-c4ccc(F)cc4)ccc3n2)cc1` [Example 111, 4-{[4-Cyclobutoxy-6-(4-fluoro-phenyl)-pyrido[3,2-d]pyrimidin-2-ylamino]-methyl}-benzenesulfonamide] are less than 0.1 µM and 5 to 25 µM.
In the same order, the values of `CCOc1nc(NCc2ccc(Cl)c(F)c2)nc2ccc(-c3ccc(F)cc3)nc12` [Example 40, (4-Chloro-3-fluoro-benzyl)-[4-ethoxy-6-(4-fluoro-phenyl)-pyrido[3,2-d]pyrimidin-2-yl]-amine] are less than 0.1 µM and 5 to 25 µM.
As to `CS(=O)(=O)CCNc1nc(NCc2ccc(S(N)(=O)=O)cc2)nc2ccc(-c3ccc(C(=O)NC4CC4)cc3)nc12` [Example 162, 4-{[4-(2-Methanesulfonylethyl)-amino-6-(4-(N-cyclopropylcarbamoyl)-phenyl)-pyrido[3,2-d]pyrimidin-2-ylamino]-methyl}-benzenesulfonamide], the EC50 in data set [1] lay in the range of 0.1 to 0.25 µM. In data set [2], this compound yielded a CC50 at 3 days greater than 25 µM.
In the same order, the values of `CCOc1nc(NCc2ccc(F)cc2)nc2ccc(-c3ccc(NC(=O)NCCN4CCOCC4)cc3)nc12` [Example 71, 1-{4-[4-Ethoxy-2-(4-fluoro-benzylamino)-pyrido[3,2-d]pyrimidin-6-yl]-phenyl}-3-(2-morpholin-4-yl-ethyl)-urea] are less than 0.1 µM and less than 5 µM.
Compound `CCOc1nc(NCc2ccc(S(N)(=O)=O)cc2)nc2ccc(-c3cccc(N(CCO)S(C)(=O)=O)c3)nc12` [Example 140, 4-{[4-Ethoxy-6-(4-(3-(N-2-hydroxy-ethyl)methanesulfonamido)-phenyl)-pyrido[3,2-d]pyrimidin-2-ylamino]-methyl}-benzenesulfonamide] returned an EC50 in data set [1] of 0.1 to 0.25 µM. In data set [2], this compound displayed a CC50 at 3 days greater than 25 µM.
`CCOc1nc(NCc2ccc(S(N)(=O)=O)cc2)nc2ccc(-c3ccc(NC(=O)[C@@H](N)[C@@H](C)O)cc3)nc12` [Example 147, 2-Amino-N-{4-[4-ethoxy-2-(4-sulfamoyl-benzylamino)-pyrido[3,2-d]pyrimidin-6-yl]-phenyl}-3-hydroxy-butyramide] came in with an EC50 in data set [1] of less than 0.1 µM. Also, in data set [2], the CC50 at 3 days is less than 5 µM.
On the same counts, the results for `CCOP(=O)(CCNc1nc(NCC(F)(F)F)c2nc(-c3ccc(F)cc3)ccc2n1)OCC` [Example 256, {2-[6-(4-Fluoro-phenyl)-4-(2,2,2-trifluoro-ethylamino)-pyrido[3,2-d]pyrimidin-2-ylamino]-ethyl}-phosphonic acid diethyl ester] are less than 0.1 µM and 5 to 25 µM.
In the same order, the values of `CCOc1nc(N[C@H](C)c2ccccc2)nc2ccc(-c3ccc(F)cc3)nc12` [Example 113, [4-Ethoxy-6-(4-fluoro-phenyl)-pyrido[3,2-d]pyrimidin-2-yl]-(1-phenyl-ethyl)-amine] are less than 0.1 µM and greater than 25 µM.
On the same counts, the results for `NS(=O)(=O)c1ccc(CNc2nc(NCC(F)(F)F)c3nc(-c4ccc(Cl)c(S(N)(=O)=O)c4)ccc3n2)cc1` [Example 202, 2-Chloro-5-[2-(4-sulfamoyl-benzylamino)-4-(2,2,2-trifluoro-ethylamino)-pyrido[3,2-d]pyrimidin-6-yl]-benzenesulfonamide] are less than 0.1 µM and less than 5 µM.
Regarding `CCOc1nc(NCc2ccc(S(N)(=O)=O)cc2)nc2ccc(-c3cnc(N)s3)nc12` [Example 126, 4-{[4-Ethoxy-6-(2-aminothiazole-5-yl)-pyrido[3,2-d]pyrimidin-2-ylamino]-methyl}-benzenesulfonamide], in data set [1], the EC50 is less than 0.1 µM. In addition, in data set [2], the CC50 at 3 days was less than 5 µM.
Turning to `CCOc1nc(NCc2ccc(Cl)cc2F)nc2ccc(-c3ccc(F)cc3)nc12` [Example 38, (4-Chloro-2-fluoro-benzyl)-[4-ethoxy-6-(4-fluoro-phenyl)-pyrido[3,2-d]pyrimidin-2-yl]-amine], the EC50 in data set [1] is less than 0.1 µM. This compound displayed a CC50 at 3 days in data set [2] of 5 to 25 µM.
